In US10961189B2, “Spiro-lactam NMDA receptor modulators and uses thereof” (Aptinyx Inc., priority 2016, dated 2021):

Legend:
[1] = biological target: T1, NMDAR2A (Homo sapiens, UniProt Q12879); assay: [3H]MK-801 binding in NMDAR expressing HEK cell membranes (facilitation of NMDAR activation); assay type: biochemical; details: 50 μM glutamate; for Emax: 0.25 h, read-out: A: % maximal [3H]MK-801 binding relative to 1 mM glycine; for EC50: read-out: B: log EC50 (converted)
T1 construct: expressed in transfected cells; host or cells: HEK cells (membrane extract)
T1 sequence (Q12879 23-1464, species assumed, other chains not shown): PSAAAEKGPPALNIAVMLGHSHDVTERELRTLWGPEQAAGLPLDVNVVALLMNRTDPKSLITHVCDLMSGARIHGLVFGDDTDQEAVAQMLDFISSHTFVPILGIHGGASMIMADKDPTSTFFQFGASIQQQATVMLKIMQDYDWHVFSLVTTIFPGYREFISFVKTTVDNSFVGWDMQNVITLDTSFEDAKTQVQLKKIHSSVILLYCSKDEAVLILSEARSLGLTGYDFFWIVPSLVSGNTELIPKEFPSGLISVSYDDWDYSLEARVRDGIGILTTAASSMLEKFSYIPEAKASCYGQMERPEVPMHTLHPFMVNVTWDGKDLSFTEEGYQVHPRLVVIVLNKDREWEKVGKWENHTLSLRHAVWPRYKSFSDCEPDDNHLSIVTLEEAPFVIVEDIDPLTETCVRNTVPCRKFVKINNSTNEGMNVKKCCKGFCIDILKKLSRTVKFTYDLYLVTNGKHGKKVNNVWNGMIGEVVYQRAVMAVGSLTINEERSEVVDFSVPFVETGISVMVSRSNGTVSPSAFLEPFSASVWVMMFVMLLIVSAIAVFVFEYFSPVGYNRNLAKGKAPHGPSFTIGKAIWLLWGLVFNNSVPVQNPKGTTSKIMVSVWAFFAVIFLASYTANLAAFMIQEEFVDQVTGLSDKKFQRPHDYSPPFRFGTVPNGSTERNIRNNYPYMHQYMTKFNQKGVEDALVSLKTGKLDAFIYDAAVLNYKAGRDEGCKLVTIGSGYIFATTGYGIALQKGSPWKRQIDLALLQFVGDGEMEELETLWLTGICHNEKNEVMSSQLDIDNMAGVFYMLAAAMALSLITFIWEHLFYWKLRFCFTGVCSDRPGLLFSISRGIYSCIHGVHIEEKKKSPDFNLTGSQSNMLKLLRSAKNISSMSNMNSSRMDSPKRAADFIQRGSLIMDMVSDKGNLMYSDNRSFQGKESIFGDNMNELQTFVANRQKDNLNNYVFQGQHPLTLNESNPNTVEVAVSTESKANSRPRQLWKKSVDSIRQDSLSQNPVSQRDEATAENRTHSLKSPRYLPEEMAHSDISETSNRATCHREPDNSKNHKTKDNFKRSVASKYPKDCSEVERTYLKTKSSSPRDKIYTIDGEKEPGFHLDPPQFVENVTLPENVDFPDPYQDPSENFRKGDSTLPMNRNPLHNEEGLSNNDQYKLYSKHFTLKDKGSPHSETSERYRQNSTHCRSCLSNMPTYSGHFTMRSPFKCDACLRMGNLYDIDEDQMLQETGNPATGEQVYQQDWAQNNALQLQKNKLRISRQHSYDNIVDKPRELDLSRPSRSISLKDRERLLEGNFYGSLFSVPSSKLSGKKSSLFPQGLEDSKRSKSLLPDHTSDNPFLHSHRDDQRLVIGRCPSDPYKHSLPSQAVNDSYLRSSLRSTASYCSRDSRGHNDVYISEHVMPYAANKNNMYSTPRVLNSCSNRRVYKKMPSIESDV
Outline: (§1)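 HEK membranes (300 μg) expressing the NMDAR subunit were preincubated 15 min at 25 °C with 50 μM glutamate and compound ([…]−1×10^−7M), then with 0.3 μCi [3H]MK-801 for 15 min under nonequilibrium conditions and filtered. Baseline-subtracted DPM was expressed as % of 1 mM glycine, and EC50 and % maximal binding came from three-parameter curve fits.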

[2] = biological target: T2, NMDAR2B (Homo sapiens, UniProt Q13224); assay: as above; assay type: biochemical; details: 50 μM glutamate; for EC50: read-out: B: log EC50 (converted); for Emax: 0.25 h, read-out: A: % maximal [3H]MK-801 binding relative to 1 mM glycine
T2 construct: expressed in transfected cells; host or cells: HEK cells (membrane extract)
T2 sequence (Q13224 27-1484, species assumed, other chains not shown): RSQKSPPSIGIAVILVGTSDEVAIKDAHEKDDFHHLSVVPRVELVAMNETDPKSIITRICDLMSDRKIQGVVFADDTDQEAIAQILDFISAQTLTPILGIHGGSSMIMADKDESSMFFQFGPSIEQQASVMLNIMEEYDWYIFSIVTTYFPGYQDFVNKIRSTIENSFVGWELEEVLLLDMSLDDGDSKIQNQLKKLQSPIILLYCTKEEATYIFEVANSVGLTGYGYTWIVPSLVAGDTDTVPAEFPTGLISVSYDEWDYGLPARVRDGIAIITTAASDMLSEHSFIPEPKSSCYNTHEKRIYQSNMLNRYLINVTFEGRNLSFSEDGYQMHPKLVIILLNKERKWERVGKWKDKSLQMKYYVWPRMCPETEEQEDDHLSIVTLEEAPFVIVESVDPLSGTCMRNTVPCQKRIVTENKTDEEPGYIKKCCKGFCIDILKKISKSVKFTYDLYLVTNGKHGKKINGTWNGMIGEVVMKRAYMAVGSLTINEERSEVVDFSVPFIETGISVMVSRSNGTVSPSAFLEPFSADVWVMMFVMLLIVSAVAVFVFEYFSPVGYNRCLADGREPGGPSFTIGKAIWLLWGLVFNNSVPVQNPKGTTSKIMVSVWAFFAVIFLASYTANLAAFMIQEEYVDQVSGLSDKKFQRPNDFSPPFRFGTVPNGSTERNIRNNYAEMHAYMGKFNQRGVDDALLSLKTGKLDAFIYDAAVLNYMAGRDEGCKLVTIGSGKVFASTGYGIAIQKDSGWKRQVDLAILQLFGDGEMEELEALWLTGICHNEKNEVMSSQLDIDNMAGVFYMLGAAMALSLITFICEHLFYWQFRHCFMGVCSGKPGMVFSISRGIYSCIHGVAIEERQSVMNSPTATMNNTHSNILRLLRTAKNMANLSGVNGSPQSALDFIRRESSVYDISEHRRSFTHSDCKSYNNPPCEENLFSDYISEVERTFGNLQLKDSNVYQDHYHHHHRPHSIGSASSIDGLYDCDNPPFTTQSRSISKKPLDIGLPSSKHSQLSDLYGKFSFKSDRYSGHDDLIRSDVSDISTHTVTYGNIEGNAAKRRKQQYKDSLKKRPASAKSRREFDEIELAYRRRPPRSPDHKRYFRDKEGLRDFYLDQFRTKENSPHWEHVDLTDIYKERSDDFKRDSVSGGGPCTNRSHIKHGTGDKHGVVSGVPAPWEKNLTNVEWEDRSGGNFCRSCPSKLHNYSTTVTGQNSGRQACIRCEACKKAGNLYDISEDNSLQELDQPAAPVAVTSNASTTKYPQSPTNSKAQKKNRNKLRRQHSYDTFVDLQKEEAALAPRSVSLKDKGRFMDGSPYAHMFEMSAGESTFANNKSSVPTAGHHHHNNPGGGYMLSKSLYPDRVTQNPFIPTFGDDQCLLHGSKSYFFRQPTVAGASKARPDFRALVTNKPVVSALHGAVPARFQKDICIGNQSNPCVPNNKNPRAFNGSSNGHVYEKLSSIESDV
Outline: as §1

Compound	Emax [1] [%]	EC50 [2] [nM]	Emax [2] [%]	EC50 [1] [nM]	A: % maximal [3H]MK-801 binding relative to 1 mM glycine [1]	A: % maximal [3H]MK-801 binding relative to 1 mM glycine [2]
CC1CCC2(CC1)CNC2=O (racemic) [Compound AD, 7-methyl-2-azaspiro[3.5]nonan-1-one]	0	≥ 1	< 100	–	–	–
O=C1NCC12CCC(OCc1ccccc1)CC2 (single isomer, unassigned) [AI, 7-(benzyloxy)-2-azaspiro[3.5]nonan-1-one]	< 100	< 1	< 100	< 1	–	–
C[C@@H](O)[C@H](NC1CCC2(CC1)CNC2=O)C(N)=O (single isomer, unassigned) [AP]	< 100	< 1	< 100	< 1	–	–
COc1ccc(CN2CC3(CCC(O)CC3)C2=O)cc1 (stereo not drawn) [AG]	< 100	< 1	< 100	≥ 1	–	–
O=C1NCC12CCC(O)CC2 (stereo not drawn) [AL, 7-hydroxy-2-azaspiro[3.5]nonan-1-one]	–	< 1	–	–	− (−=0)	+ (<100%=+)
